Converted amounts (≈) assume the structure as drawn.
Tests used:
[1] = biological target: T1, Enoyl-[acyl-carrier-protein] reductase [NADH] (Mycobacterium tuberculosis) (UniProt P9WGR1); assay: Inhibition of replicating Mycobacterium tuberculosis H37Rv InhA assessed as cell growth inhibition after 7 days by MABA method
T1 sequence (whole entry): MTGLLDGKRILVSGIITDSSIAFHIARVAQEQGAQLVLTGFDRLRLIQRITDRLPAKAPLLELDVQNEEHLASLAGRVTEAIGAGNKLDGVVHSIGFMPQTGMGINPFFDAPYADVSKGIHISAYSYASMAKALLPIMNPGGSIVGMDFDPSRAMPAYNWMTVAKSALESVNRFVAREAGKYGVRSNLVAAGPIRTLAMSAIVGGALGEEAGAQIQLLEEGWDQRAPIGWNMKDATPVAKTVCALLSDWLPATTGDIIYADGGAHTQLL

[2] = Cytotoxicity against HEK293 cells assessed as inhibition of cell viability at 25 ug/ml after 48 hrs by MTT assay relative to control; type: cell-based; details: human, read-out: INH

| Compound | MIC [1] [µg/mL] | cytotoxicity at 48 h, 25 ug/ml [2] [%] |
| --- | --- | --- |
| COc1ccc(C(=O)NNC(=O)[C@H](Cc2ccc(O)cc2)NC(=O)c2ccc(-c3ccc(F)cc3)s2)cc1 | 1.56 (≈ 2.92 µM) | 23.6 |
| CSc1ccc(-c2ccc(C(=O)NNC(=O)c3ccccc3F)o2)cc1 | 6.25 (≈ 16.9 µM) | 16.9 |
| CC[C@@H](CO)NCCN[C@@H](CC)CO | 1.56 (≈ 7.64 µM) |  |
| CSc1ccc(-c2ccc(C(=O)NNC(=O)c3ccc(F)cc3)o2)cc1 | 0.39 (≈ 1.05 µM) | 27 |
| COc1ccc(C(=O)NNC(=O)[C@H](Cc2ccc(O)cc2)NC(=O)c2ccc(Br)o2)cc1 | > 25 |  |
| COc1ccc(C(=O)NNC(=O)c2ccc(-c3ccccc3SC)s2)cc1 | > 25 |  |
| Cc1ccc(C(=O)NNC(=O)c2ccc(-c3ccccc3S(C)(=O)=O)o2)cc1 | 3.12 (≈ 7.84 µM) | 22.9 |
| CC(C)(C)c1ccc(C(=O)NNC(=O)[C@H](Cc2ccc(O)cc2)NC(=O)c2ccc(Br)o2)cc1 | 3.12 (≈ 5.91 µM) | 26.6 |
| O=C(NNC(=O)[C@H](Cc1ccc(O)cc1)NC(=O)c1ccc(-c2ccc(F)cc2)o1)c1ccc(Br)cc1 | 25 (≈ 44.1 µM) |  |
| O=C(NNC(=O)[C@H](Cc1ccc(O)cc1)NC(=O)c1ccc(-c2ccccc2)o1)c1ccc(Br)cc1 | 0.78 (≈ 1.42 µM) | 16.3 |
| COc1ccc(C(=O)NNC(=O)[C@H](Cc2ccc(O)cc2)NC(=O)c2ccc(-c3ccc(OC)cc3)o2)cc1 | 0.78 (≈ 1.47 µM) | 29.9 |
| O=C(NNC(=O)[C@H](Cc1ccc(O)cc1)NC(=O)c1ccc(Br)o1)c1ccc(Cl)cc1 | 12.5 (≈ 24.7 µM) |  |
| CC(C)(C)c1ccc(C(=O)NNC(=O)[C@H](Cc2ccc(O)cc2)NC(=O)c2ccc(-c3ccccc3)o2)cc1 | 0.78 (≈ 1.48 µM) | 18.7 |
| Cc1ccc(C(=O)NNC(=O)[C@H](Cc2ccc(O)cc2)NC(=O)c2ccc(-c3ccccc3)o2)cc1 | 12.5 (≈ 25.9 µM) |  |
| NNC(=O)c1ccncc1 | 0.1 (≈ 0.729 µM) |  |
| O=C(NNc1nc2ccccc2s1)c1ccc(-c2ccccc2)o1 | 25 (≈ 74.5 µM) |  |
| O=C(N[C@@H](Cc1ccc(O)cc1)C(=O)NNC(=O)c1ccccc1F)c1ccc(-c2ccc(F)cc2)s1 | > 25 |  |
| CSc1ccc(-c2ccc(C(=O)NNC(=O)c3ccc(C(C)(C)C)cc3)o2)cc1 | 6.25 (≈ 15.3 µM) | 10.6 |
| COc1ccc(C(=O)NNC(=O)c2ccc(-c3ccc(SC)cc3)o2)cc1 | 0.78 (≈ 2.04 µM) | 17.4 |
| CO[C@H]1/C=C/O[C@@]2(C)Oc3c(C)c(O)c4c(O)c(c(/C=N/N5CCN(C)CC5)c(O)c4c3C2=O)NC(=O)/C(C)=C\C=C\[C@H](C)[C@H](O)[C@@H](C)[C@@H](O)[C@@H](C)[C@H](OC(C)=O)[C@@H]1C | 0.2 (≈ 0.243 µM) |  |
| O=C(NNC(=O)[C@H](Cc1ccc(O)cc1)NC(=O)c1ccc(Br)o1)c1ccc(F)cc1 | > 25 |  |
| CSc1ccc(-c2ccc(C(=O)NNC(=O)c3ccco3)o2)cc1 | 6.25 (≈ 18.3 µM) | 11.6 |
| CSc1ccc(-c2ccc(C(=O)NNC(=O)c3ccc(O)cc3)o2)cc1 | 0.78 (≈ 2.12 µM) | 17.4 |
| O=C(NNC(=O)[C@H](Cc1ccc(O)cc1)NC(=O)c1ccc(-c2ccc(F)cc2)s1)c1ccc(Cl)cc1 | 0.78 (≈ 1.45 µM) | 17 |
| COc1ccccc1C(=O)NNC(=O)c1ccc(-c2ccc(SC)cc2)o1 | 12.5 (≈ 32.7 µM) |  |
| O=C(NNC(=O)[C@H](Cc1ccc(O)cc1)NC(=O)c1ccc(-c2ccc(F)cc2)s1)c1ccc(F)cc1 | 6.25 (≈ 12 µM) | 22.9 |
